Assay results reported in patent publication US10519107B2, “Sulfonamide compounds and their use as STAT5 inhibitors” (Governing Council of the University of Toronto, priority 2014, dated 2019).

Legend:
[1] = Metabolic stability in pooled human liver s9 fractions with NADPH; type: in vitro ADME; conditions: 60 min
Protocol: (§1) For the pooled s9 fractions, solution of the s9 fraction along with NADPH was added to each well. […] The positive control used in the assay was Verapamil, a known drug to be metabolized by liver enzymes. The reaction was started by the addition of 13a and performed in duplicate. Aliquots were taken from the reaction solution at 0 min and 60 min. The reaction was stopped by the addition of cold methanol. Samples were then analyzed through LC-MS/MS to determine the metabolic profile.

wildtype STAT1 protein = target: T1, wildtype STAT1 protein (Homo sapiens, UniProt P42224); assay: Fluorescence polarization competitive binding, STAT1; conditions: FP; read-out: IC50, disruption of phosphopeptide-STAT1 complex
T1 sequence (P42224 1-750): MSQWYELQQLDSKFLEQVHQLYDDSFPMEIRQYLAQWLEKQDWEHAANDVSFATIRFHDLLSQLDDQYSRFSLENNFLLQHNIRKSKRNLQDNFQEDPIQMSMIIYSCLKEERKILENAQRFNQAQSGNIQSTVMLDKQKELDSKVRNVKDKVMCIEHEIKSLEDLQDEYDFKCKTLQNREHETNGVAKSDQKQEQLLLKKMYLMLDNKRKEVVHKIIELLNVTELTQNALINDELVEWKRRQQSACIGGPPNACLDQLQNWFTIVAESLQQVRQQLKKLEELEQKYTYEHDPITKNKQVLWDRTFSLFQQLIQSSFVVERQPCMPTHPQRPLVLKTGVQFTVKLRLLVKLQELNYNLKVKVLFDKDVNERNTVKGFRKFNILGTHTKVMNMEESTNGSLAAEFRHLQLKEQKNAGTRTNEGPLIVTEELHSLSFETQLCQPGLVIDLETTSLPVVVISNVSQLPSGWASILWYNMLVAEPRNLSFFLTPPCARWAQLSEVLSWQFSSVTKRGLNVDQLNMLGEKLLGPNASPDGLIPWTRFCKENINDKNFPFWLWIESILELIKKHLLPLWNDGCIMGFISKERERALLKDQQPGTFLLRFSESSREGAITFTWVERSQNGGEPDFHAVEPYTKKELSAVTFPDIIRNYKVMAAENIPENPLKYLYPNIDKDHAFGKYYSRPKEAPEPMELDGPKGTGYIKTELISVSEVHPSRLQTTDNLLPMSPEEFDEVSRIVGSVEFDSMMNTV

[2] = tested on: phosphorylated STAT5 (Y694); assay: Western blotting of pSTAT5 in K562 cells; type: cell-based, Human; conditions: K562, 5 hrs
Protocol: Human erythroleukemia K562 and MV-4-11 cells were cultured in Iscove's modified dulbecco's medium (Gibco) supplemented with 10% FBS (Sigma). Breast carcinoma lines MDA-MB-231 and MDA-MB-468 were grown in dulbecco's modified eagles medium (DMEM) supplemented with 10% FBS (sigma). For downregulation of STAT5 activity, cells were treated with 5, 10, 15, 20 μM of 13a-d STAT5 compounds, for 3 h and 5 h time points. As a control, cells were treated with the DMSO alone.

MCL-1, cleaved PARP-1 = assay: Western blotting of apoptosis and MCL-1 in MV-4;11 cells; type: cell-based, Human
Excerpt: Correspondingly, western blot analysis for protein levels of pSTAT5 and downstream target gene expression were also investigated within the AML cell line, MV-4; 11.

[3] = Metabolic stability in pooled mouse liver s9 fractions with NADPH; type: in vitro ADME; conditions: 60 min
Protocol: as §1

[4] = Metabolic stability in mouse hepatocytes; type: in vitro ADME; conditions: 120 min
Protocol: 13a was then evaluated within intact human and mouse hepatocytes. Like the s9 fractions, Verapamil was used as a positive control in the assay. Cryopreserved hepatocytes were thawed and plated to a working cell density of 0.5×10^6 viable cell/mL.

SMILES: CC(C)(C)c1cc(CN(C(=O)CN(Cc2ccc(Cl)cc2)S(=O)(=O)c2c(F)c(F)c(F)c(F)c2F)c2ccc(C(=O)O)c(O)c2)cc(C(C)(C)C)c1 [Compound 13a, 4-(2-((N-(4-chlorobenzyl)-2,3,4,5,6-pentafluorophenyl)sulfonamido)-N-(3,5-di-tert-butylbenzyl)acetamido)-2-hydroxybenzoic Acid]
- recovered in human liver s9 (HLS9) fractions [1]: 59.82%
- IC50 (wildtype STAT1 protein): > 150 µM
- levels of phosphorylated STAT5 (Y694) [2]: decreased pSTAT5 in a dose dependant manner and ablated pSTAT5 above 10 μM
- total STAT5 concentration or cleavable PARP-1 [2]: no change
- downstream target MCL-1 (MCL-1, cleaved PARP-1; MV-4;11, 10 μM, 24 h): complete knockdown
- apoptosis (MCL-1, cleaved PARP-1; MV-4;11, 24 h): initiation of apoptosis was observed
- recovered in mouse liver s9 (MMLS9) fractions [3]: 6.96%
- recovered in mouse hepatocytes [4]: 53.37%
- recovered in boiled mouse hepatocytes (negative control) ([4]; boiled hepatocytes): ~85%
